Test results reported in patent US20260356841A1, “HETEROCYCLIC PYRIDINONE COMPOUNDS AS TRIGGERING RECEPTOR EXPRESSED ON MYELOID CELLS 2 AGONISTS AND METHODS OF USE” (Vigil Neuroscience, Inc., priority 2023, published 2026).
pEC50: −log10 of the molar value.

What follows are compounds tested against T1, human TREM2 (Homo sapiens, UniProt Q9NZC2) (assay: TREM2 agonist potency by cellular phosphorylation of Spleen Tyrosine Kinase (Syk), AlphaLisa, HEK293T-hTREM2 cells). Details: not given.
T1 construct: expressed in transfected cells; host or cells: HEK293T (HEK293T-hTREM2 cells)
T1 sequence (Q9NZC2 19-230): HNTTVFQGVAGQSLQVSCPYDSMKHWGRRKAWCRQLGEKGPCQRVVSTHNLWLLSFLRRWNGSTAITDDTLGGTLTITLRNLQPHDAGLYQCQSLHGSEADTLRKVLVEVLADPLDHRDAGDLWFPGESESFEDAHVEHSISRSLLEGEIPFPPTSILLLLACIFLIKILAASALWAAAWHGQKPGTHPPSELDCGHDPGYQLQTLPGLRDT
T1 sequence (O43914 22-113 partner): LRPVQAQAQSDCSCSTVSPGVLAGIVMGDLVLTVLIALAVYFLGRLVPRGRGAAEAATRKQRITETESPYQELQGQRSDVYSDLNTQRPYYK
Assay type: cell-based
Protocol: Measurement of TREM2 agonist potency was done using a HEK cell line expressing human TREM2 and DAP12 (HEK293T-hTREM2 cells). Binding of small molecules to, and activation of, TREM2 increases the phosphorylation of Syk. The resultant levels of Syk phosphorylation are measured using a commercial AlphaLisa reagent kit. To perform the assay, HEK-hTREM2 cells were plated at 14,000 cells per well in a 384 well plate, in 25 μL of complete growth media and incubated at 37° C., 5% CO2 for 20-24 hours.
Prior to the assay, test compounds were diluted in the 384 well plates in assay buffer and allowed to equilibrate for 30 minutes. Growth media was removed from cell plates by inversion on blotting paper, and 25 μL of test articles in assay buffer was added to cells. Cells were incubated for 45 minutes at room temperature. After 45 minutes, assay buffer was removed and 10 μL of lysis buffer was added. Plates were shaken for 20 minutes at 350 RPM at room temperature. After complete lysis, AlphaLisa reagents were added to the lysate, and fluorescence intensity was measured using a Perkin Elmer Envision plate reader. Intensities were used to generate a standard curve, and % activation was calculated. Curve fitting was performed using Prism v9 software, log (agonist) vs response-variable slope (four parameters), and EC50s were calculated from the curve fit.
The results presented in Table B have been generated with the in vitro assay described above. This assay may be used to test any of the compounds described herein to assess and characterize a compound's ability to act as an agonist of TREM2.
`Cc1nc2nc(N3C[C@@H](C)O[C@@H](c4ccc(=O)n(C)c4)C3)nc(C34CC(C(F)(F)F)(C3)C4)c2nc1C(F)F` [Example 180, 5-[(2S,6R)-4-[6-(difluoromethyl)-7-methyl-4-[3-(trifluoromethyl)-1-bicyclo[1.1.1]pentanyl]pteridin-2-yl]-6-methyl-morpholin-2-yl]-1-methyl-pyridin-2-one] was tested, and the pEC50 was greater than 7.00.

Same assay, conditions: hTREM2 EC50 Data (HEK293 Cells); Syk phosphorylation, AlphaLisa; read-out: hTREM2 EC50
Work on `Cc1nc2nc([C@@H]3CCO[C@H](c4ccc(=O)n(C(C)C)c4)C3)nc(-c3ccc(C(F)(F)F)cc3F)c2nc1C` [Example 69, 1-isopropyl-5-[(2S,4R)-4-[4-[2-fluoro-4-(trifluoromethyl)-phenyl]-6,7-dimethyl-pteridin-2-yl]tetrahydropyran-2-yl]pyridin-2-one] yielded a pEC50 greater than 7.00.
With `CCCNn1cc([C@H]2C[C@@H](c3nc(C45CC(C(F)(F)F)(C4)C5)c4nc(C)c(C)nc4n3)CCO2)ccc1=O` [Example 212, 5-[(2R,4S)-4-[6,7-dimethyl-4-[3-(trifluoromethyl)-1-bicyclo[1.1.1]pentanyl]pteridin-2-yl]tetrahydropyran-2-yl]-1-(propylamino)pyridin-2-one] the pEC50 was greater than 7.00.
`COc1nc2c(C34CC(C(F)(F)F)(C3)C4)nc([C@H]3CCO[C@@H](c4ccc(=O)n(-c5csc(C)n5)c4)C3)nc2nc1C` [Example 153, 5-((2R,4S)-4-(6-methoxy-7-methyl-4-(3-(trifluoromethyl)-bicyclo[1.1.1]pentan-1-yl)pteridin-2-yl)tetrahydro-2H-pyran-2-yl)-1-(2-methylthiazol-4-yl)pyridin-2(1H)-one] gave a pEC50 greater than 7.00.
Work on `Cc1nc2c(C34CC(C(F)(F)F)(C3)C4)nc([C@@H]3CCO[C@H](c4ccc(=O)n(C)c4)C3)nc2nc1C1CC1` [Example 156, 1-methyl-5-[(2S,4R)-4-[7-cyclopropyl-6-methyl-4-[3-(trifluoro-methyl)-1-bicyclo[1.1.1]pentanyl]pteridin-2-yl]tetrahydropyran-2-yl]pyridin-2-one] yielded a pEC50 greater than 7.00.
Compound `Cc1nc2nc([C@H]3CCO[C@@H](c4ccc(=O)n(N)c4)C3)nc(C34CC(C(F)(F)F)(C3)C4)c2cc1C(F)(F)F` [Example 332, 1-amino-5-((2R,4S)-4-(7-methyl-6-(trifluoromethyl)-4-(3-(trifluoromethyl)bicyclo[1.1.1]pentan-1-yl)pyrido[2,3-d]pyrimidin-2-yl)tetrahydro-2H-pyran-2-yl)pyridin-2 (1H)-one] has a pEC50 greater than 7.00.
Work on `CN(C)c1nc2nc([C@H]3CCO[C@@H](c4ccc(=O)n(C)c4)C3)nc(-c3ccc(F)cc3F)c2s1` [Example 13, 5-[(2R,4S)-4-[7-(2,4-difluorophenyl)-2-(dimethylamino)thiazolo[4,5-d]pyrimidin-5-yl]tetrahydropyran-2-yl]-1-methyl-pyridin-2-one] yielded a pEC50 of 6.30 to 7.00.
`CNn1cc([C@H]2CN(c3nc(-c4ccc(F)cc4F)c4sc(N(C)C)nc4n3)C[C@@H](C)O2)ccc1=O` [Example 175, 5-[(2S,6R)-4-[7-(2,4-difluorophenyl)-2-(dimethylamino)thiazolo[4,5-d]pyrimidin-5-yl]-6-methyl-morpholin-2-yl]-1-(methylamino)pyridin-2-one] was tested, and the pEC50 was greater than 7.00.
`Cc1nc2nc([C@H]3CCO[C@@H](c4ccc(=O)n(-c5csc(C6CC6)c5)c4)C3)nc(C34CC(C(F)(F)F)(C3)C4)c2nc1C` [Example 112] gave a pEC50 greater than 7.00.
With `Cc1nc2nc([C@H]3CCO[C@@H](c4ccc(=O)n(C5CC5)c4)C3)nc(-c3ccc(C(F)(F)F)cc3F)c2nc1C` [Example 64, 1-cyclopropyl-5-[(2R,4S)-4-[4-[2-fluoro-4-(trifluoromethyl)phenyl]-6,7-dimethyl-pteridin-2-yl]tetrahydropyran-2-yl]pyridin-2-one] the pEC50 was greater than 7.00.
`CN(C)c1nc2c(C34CC(C(F)(F)F)(C3)C4)nc([C@H]3CCO[C@@H](c4ccc(=O)n(C)c4)C3)nc2n1C` [Example 188] was tested, and the pEC50 was less than 6.30.
In the case of `Cc1nc2nc([C@H]3CCO[C@@H](c4ccc(=O)n(N5CCCC5)c4)C3)nc(C34CC(C(F)(F)F)(C3)C4)c2nc1C` [Example 209, 5-[(2R,4S)-4-[6,7-dimethyl-4-[3-(trifluoromethyl)-1-bicyclo[1.1.1]pentanyl]pteridin-2-yl]tetrahydropyran-2-yl]-1-pyrrolidin-1-yl-pyridin-2-one], the pEC50 was greater than 7.00.
With `Cc1nc2nc([C@@H]3CCO[C@H](c4ccc(=O)n(CC(F)F)c4)C3)nc(C34CC(C(F)(F)F)(C3)C4)c2nc1C` [Example 72, 1-(2,2-difluoroethyl)-5-[(2S,4R)-4-[6,7-dimethyl-4-[3-(trifluoro-methyl)-1-bicyclo-[1.1.1]pentanyl]-pteridin-2-yl]tetrahydropyran-2-yl]pyridin-2-one] the pEC50 was greater than 7.00.
Compound `Cc1nc2nc([C@@H]3CCO[C@H](c4ccc(=O)n(C(C)C)c4)C3)nc(C34CC(C(F)(F)F)(C3)C4)c2nc1C` [Example 78, 1-isopropyl-5-[(2S,4R)-4-[6,7-dimethyl-4-[3-(trifluoromethyl)-1-bicyclo[1.1.1]-pentanyl]pteridin-2-yl]tetrahydropyran-2-yl]pyridin-2-one] has a pEC50 greater than 7.00.
In the case of `Cc1cc2c(-c3ccc(F)cc3F)nc(N3C[C@@H](C)O[C@@H](c4ccc(=O)[nH]c4)C3)cc2nc1C` [Example 192, 5-((2S,6R)-4-(5-(2,4-difluorophenyl)-2,3-dimethyl-1,6-naphthyridin-7-yl)-6-methylmorpholin-2-yl)pyridin-2(1H)-one], the pEC50 was 6.30 to 7.00.
With `Cc1nc2cc(C3CCO[C@@H](c4ccc(=O)n(C)c4)C3)nc(-c3ccc(F)cc3F)c2nc1C` (stereo partly shown) [Example 194, 5-(4-(5-(2,4-difluorophenyl)-2,3-dimethylpyrido[3,4-b]pyrazin-7-yl)tetrahydro-2H-pyran-2-yl)-1-methylpyridin-2 (1H)-one] the pEC50 was 6.30 to 7.00.
`Cc1nc2nc([C@H]3CCO[C@@H](c4ccc(=O)n(C)c4)C3)nc(C34CC(C(F)F)(C3)C4)c2nc1C` [Example 31, 5-[(2R,4S)-4-[4-[3-(difluoromethyl)-1-bicyclo[1.1.1]-pentanyl]-6,7-dimethyl-pteridin-2-yl]-tetrahydropyran-2-yl]-1-methyl-pyridin-2-one] showed a pEC50 greater than 7.00.
Compound `COc1nc2c(C34CC(C(F)(F)F)(C3)C4)nc([C@H]3CCO[C@@H](c4ccc(=O)n(C5CC5)c4)C3)nc2nc1C` [Example 142, 1-cyclopropyl-5-[(2R,4S)-4-[6-methoxy-7-methyl-4-[3-(trifluoromethyl)-1-bicyclo-[1.1.1]pentanyl]pteridin-2-yl]tetrahydropyran-2-yl]pyridin-2-one] has a pEC50 greater than 7.00.
In the case of `Cc1nc2c(C34CC(C(F)(F)F)(C3)C4)nc([C@H]3CCO[C@@H](c4ccc(=O)n(N)c4)C3)nc2c(=O)n1C` (racemic) [Example 218, 2,3-dimethyl-6-[rac-(2R,4S)-2-(1-amino-6-oxo-3-pyridyl)tetrahydropyran-4-yl]-8-[3-(trifluoromethyl)-1-bicyclo[1.1.1]pentanyl]pyrimido[5,4-d]pyrimidin-4-one], the pEC50 was 6.30 to 7.00.
`Cc1nc2nc([C@H]3CCO[C@@H](c4ccc(=O)n(C)c4)C3)nc(C34CC(C(C)(C)F)(C3)C4)c2nc1C` [Example 52, 5-[(2R,4S)-4-[4-[3-(1-fluoro-1-methyl-ethyl)-1-bicyclo[1.1.1]pentanyl]-6,7-dimethyl-pteridin-2-yl]tetrahydropyran-2-yl]-1-methyl-pyridin-2-one] gave a pEC50 greater than 7.00.
For `COn1cc([C@H]2C[C@@H](c3nc(C45CC(C(F)(F)F)(C4)C5)c4nc(C)c(C)nc4n3)CCO2)ccc1=O` [Example 203, 5-[(2R,4S)-4-[6,7-dimethyl-4-[3-(trifluoromethyl)-1-bicyclo[1.1.1]pentanyl]pteridin-2-yl]tetrahydropyran-2-yl]-1-methoxy-pyridin-2-one], the pEC50 was greater than 7.00.
Work on `COc1nc2c(-c3ccc(C(F)(F)F)cc3F)nc([C@H]3CCO[C@@H](c4ccc(=O)n(C5CC5)c4)C3)nc2nc1C` [Example 134, 1-cyclopropyl-5-[(2R,4S)-4-[4-[2-fluoro-4-(trifluoromethyl)phenyl]-6-methoxy-7-methyl-pteridin-2-yl]tetrahydropyran-2-yl]pyridin-2-one] yielded a pEC50 greater than 7.00.
With `[2H]C([2H])([2H])c1nc2nc(C3CCOC(c4ccc(=O)n(C([2H])([2H])[2H])c4)C3)nc(C34CC(C(F)(F)F)(C3)C4)c2nc1C([2H])([2H])[2H]` (stereo not shown) [Example 353] the pEC50 was greater than 7.00.
`Cc1nc2nc([C@@H]3CCO[C@H](c4cnc(=O)n(C)c4)C3)nc(C34CC(C(F)(F)F)(C3)C4)c2nc1C` [Example 162, 1-methyl-5-[(2S,4R)-4-[6,7-dimethyl-4-[3-(trifluoromethyl)-1-bicyclo[1.1.1]-pentanyl]pteridin-2-yl]tetrahydropyran-2-yl]pyrimidin-2-one] gave a pEC50 greater than 7.00.
`Cc1cnc2nc([C@H]3CCO[C@@H](c4ccc(=O)[nH]c4)C3)nc(C34CC(C(F)(F)F)(C3)C4)c2n1` [Example 197, 5-((2R,4S)-4-(6-methyl-4-(3-(trifluoromethyl)bicyclo[1.1.1]pentan-1-yl)pteridin-2-yl)tetrahydro-2H-pyran-2-yl)pyridin-2(1H)-one] was tested, and the pEC50 was 6.30 to 7.00.
